For one data set the following is noted: human, hek293, 0.1 µM.
`CO[C@H]1/C=C/O[C@@]2(C)Oc3c(C)c(O)c4c(O)c(c(/C=N/N5CCN(C)CC5)c(O)c4c3C2=O)NC(=O)/C(C)=C\C=C\[C@H](C)[C@H](O)[C@@H](C)[C@@H](O)[C@@H](C)[C@H](OC(C)=O)[C@@H]1C` [RIFAMPIN] returned a Fu of 0.62.

With `CC(C)NCC(O)COc1cccc2ccccc12` (stereo unspecified) [PROPRANOLOL], the Fu came out at 0.7.

In turn, `Fc1ccc([C@@H]2CCNC[C@H]2COc2ccc3c(c2)OCO3)cc1` [PAROXETINE] had a Fu of 0.25.

In turn, `Cc1ncc2n1-c1ccc(Cl)cc1C(c1ccccc1F)=NC2` [MIDAZOLAM] registered a Fu of 0.66.

`CC(CN(C)C)CN1c2ccccc2CCc2ccccc21` (stereo unspecified) [TRIMIPRAMINE] had a Fu of 0.4.

For the compound `O=C(CCCN1CCC2(CC1)C(=O)NCN2c1ccccc1)c1ccc(F)cc1` [SPIPERONE], the Fu is listed as 0.66.

With `CCCc1nc2c(C)cc(-c3nc4ccccc4n3C)cc2n1Cc1ccc(-c2ccccc2C(=O)O)cc1`, the Fu is listed as 0.42.

Take `COCc1c(C(C)C)nc(C(C)C)c(/C=C/[C@@H](O)C[C@@H](O)CC(=O)O)c1-c1ccc(F)cc1` [CERIVASTATIN]: the Fu came to 0.55.

`Cc1nccn1CC1CCc2c(c3ccccc3n2C)C1=O` (stereo unspecified) [ONDANSETRON] displayed a Fu of 0.94.

On to `CC(=O)N1CCN(c2ccc(OCC3COC(Cn4ccnc4)(c4ccc(Cl)cc4Cl)O3)cc2)CC1` (stereo unspecified) [KETOCONAZOLE], for which the Fu is reported as 0.39.

Turning to `COC(=O)C1=C(C)NC(C)=C(C(=O)OCCN(C)Cc2ccccc2)C1c1cccc([N+](=O)[O-])c1` (stereo unspecified) [NICARDIPINE], the Fu is reported as 0.095.

Regarding `C=CCc1ccccc1OCC(O)CNC(C)C` (stereo unspecified) [ALPRENOLOL], the Fu is on record as 0.9.

As to `O=C(O)c1cc(/N=N/c2ccc(S(=O)(=O)Nc3ccccn3)cc2)ccc1O` [SULFASALAZINE], the Fu was found to be 0.72.

On to `O=C(CCCN1CCC(O)(c2ccc(Cl)cc2)CC1)c1ccc(F)cc1` [HALOPERIDOL], for which the Fu amounted to 0.52.

`CSc1ccc2c(c1)N(CCC1CCCCN1C)c1ccccc1S2` (stereo unspecified) [THIORIDAZINE] had a Fu of 0.049.

Take `O=C(O)Cc1ccccc1Nc1c(Cl)cccc1Cl` [DICLOFENAC]: the Fu is 0.78.

Take `NC(=O)N1c2ccccc2C=Cc2ccccc21` [CARBAMAZEPINE]: the Fu was determined as 0.97.

In turn, `CN(C)C(=O)C(CCN1CCC(O)(c2ccc(Cl)cc2)CC1)(c1ccccc1)c1ccccc1` [LOPERAMIDE] displayed a Fu of 0.35.

The compound `CC[C@H](C)C(=O)O[C@H]1C[C@@H](C)C=C2C=C[C@H](C)[C@H](CC[C@@H]3C[C@@H](O)CC(=O)O3)[C@H]21` [LOVASTATIN] came in with a Fu of 0.22.

Consider `CC(C)(C)NC(=O)[C@@H]1C[C@@H]2CCCC[C@@H]2CN1C[C@@H](O)[C@H](Cc1ccccc1)NC(=O)[C@H](CC(N)=O)NC(=O)c1ccc2ccccc2n1`, for which the Fu stood at 0.17.

`CCCCN1CCCCC1C(=O)Nc1c(C)cccc1C` (stereo unspecified) [BUPIVACAINE]: the Fu is reported as 0.89.

Compound `COCCc1ccc(OCC(O)CNC(C)C)cc1` (stereo unspecified) [METOPROLOL] gave a Fu of 1.

Consider `COc1ccc2c(c1)[C@]13CCCC[C@@H]1[C@H](C2)N(C)CC3` [DEXTROMETHORPHAN], for which the Fu worked out at 0.82.

With `C[C@@H]1CN(c2c(F)c(N)c3c(=O)c(C(=O)O)cn(C4CC4)c3c2F)C[C@H](C)N1` [SPARFLOXACIN], the Fu is reported as 0.88.

`CCCNC(=O)NS(=O)(=O)c1ccc(Cl)cc1` [CHLORPROPAMIDE] yielded a Fu of 1.

On to `CN(C)CCCN1c2ccccc2CCc2ccc(Cl)cc21` [CLOMIPRAMINE], for which the Fu was 0.19.

On to `CC(=O)[C@H]1CC[C@H]2[C@@H]3CCC4=CC(=O)CC[C@]4(C)[C@H]3CC[C@]12C` [PROGESTERONE], for which the Fu is recorded as 0.67.

As for `O=C1c2c(O)ccc(O)c2C(=O)c2c(NCCNCCO)ccc(NCCNCCO)c21` [MITOXANTRONE], the Fu stood at 0.13.

Compound `CN(C)CCCC1(c2ccc(F)cc2)OCc2cc(C#N)ccc21` (stereo unspecified) [CITALOPRAM] registered a Fu of 0.81.

Consider `CC(C)(C)NCC(O)COc1ccc(NC(=O)NC2CCCCC2)cc1` (stereo unspecified) [TALINOLOL], for which the Fu worked out at 0.85.

With `COc1ccc2c(c1)c(CC(=O)O)c(C)n2C(=O)c1ccc(Cl)cc1` [INDOMETHACIN], the Fu is given as 0.79.

The compound `CNC(=C[N+](=O)[O-])NCCSCc1ccc(CN(C)C)o1` [RANITIDINE] yielded a Fu of 1.

The compound `CN/C(=N/CCSCc1nc[nH]c1C)NC#N` [CIMETIDINE] came in with a Fu of 1.

For the compound `CCN(CC)CCNC(=O)c1cc(Cl)c(N)cc1OC` [METOCLOPRAMIDE], the Fu came to 0.95.

`CC(C)CN(C[C@@H](O)[C@H](Cc1ccccc1)NC(=O)O[C@H]1CCOC1)S(=O)(=O)c1ccc(N)cc1` registered a Fu of 0.92.

The nature of another data set: Unbound fraction in HEK293 cell homogenate at 0.01 uM by equilibrium dialysis based UPLC-MS/MS analysis. The class given is ADME. Conditions: human, hek293, 0.01 µM.
Compound `Cc1c(O)cccc1C(=O)N[C@@H](CSc1ccccc1)[C@H](O)CN1C[C@H]2CCCC[C@H]2C[C@H]1C(=O)NC(C)(C)C` gave a Fu of 0.024.
